Measured values published in patent EP3513780A1, “METHOD FOR SUPPORTING EPIDERMAL STEM CELL SELF-RENEWAL” (DSM IP Assets B.V., priority 2018, dated 2019).

These molecules were tested on SPINK5 (assay: Gene expression (qPCR) in NHEK: SPINK5). Settings: 24 hours, 0.1 mM (Vitamin B12 0.03 mM), normalized to HPRT1, n.s. = not statistically significant.
Format: cell-based, human
Protocol: (§1) Vitamin B2, 0.1 mM • 2. D-panthenol, 0.1 mM • 3. Pyridoxine HCl, 0.1 mM • 4. Vitamin B12, 0.03mM • 5. Niacinamide, 0.1 mM • 6. Folic Acid, 0.1 mM
(§2) All Test Materials were diluted in DermaLife K medium.
(§3) Fresh media replacements were performed every other day.
(§4) OpenArray format. […] Each gene was assayed in duplicate.
(§5) See the Endogenous Control Selection section for more details. Unpaired t-tests were carried out using StatMiner software.

Point of comparison: `Cc1ncc(CO)c(CO)c1O.Cl` [Pyridoxine HCl], “Linear Fold-Change Value, Each Group vs the Untreated Control: SPINK5” value (shortened to “Linear Fold-Change Value, Each Group … SPINK5”) -2.05 fold. Against it:
- CC(C)(CO)[C@@H](O)C(=O)NCCCO [D-Panthenol, (+)-(R)-2,4-Dihydroxy-N-(3-hydroxypropyl)-3,3-dimethylbutyramid] — higher, -2.00 fold
- cobalamin [Vitamin B12] — higher, -1.63 fold
- Nc1nc2ncc(CNc3ccc(C(=O)N[C@@H](CCC(=O)O)C(=O)O)cc3)nc2c(=O)[nH]1 [Folic acid] — higher, -1.79 fold

`NC(=O)c1cccnc1` [Niacinamide, nicotinamide] was tested, and the “Linear Fold-Change Value, Each Group … SPINK5” value was “n.s”.
For `Cc1cc2nc3c(=O)[nH]c(=O)nc-3n(C[C@H](O)[C@H](O)[C@H](O)CO)c2cc1C` [Vitamin B2, riboflavin], the “Linear Fold-Change Value, Each Group … SPINK5” value was “n.s”.

What follows are molecules tested on CALML5 (assay: Gene expression (qPCR) in NHEK: CALML5). Settings: 24 hours, 0.1 mM (Vitamin B12 0.03 mM), normalized to HPRT1, n.s. = not statistically significant.
Format: cell-based, human
Protocol: as §1, §2, §3, §4, §5

Point of comparison: `CC(C)(CO)[C@@H](O)C(=O)NCCCO` [D-Panthenol, (+)-(R)-2,4-Dihydroxy-N-(3-hydroxypropyl)-3,3-dimethylbutyramid], “Linear Fold-Change Value, Each Group vs the Untreated Control: CALML5” value -1.87 fold. Against it:
- cobalamin [Vitamin B12] — higher, -1.73 fold
- Nc1nc2ncc(CNc3ccc(C(=O)N[C@@H](CCC(=O)O)C(=O)O)cc3)nc2c(=O)[nH]1 [Folic acid] — higher, -1.67 fold
- Cc1ncc(CO)c(CO)c1O.Cl [Pyridoxine HCl] — lower, -1.90 fold
- Cc1cc2nc3c(=O)[nH]c(=O)nc-3n(C[C@H](O)[C@H](O)[C@H](O)CO)c2cc1C [Vitamin B2, riboflavin] — higher, -1.24 fold

What follows are molecules tested on TP63 (assay: Gene expression (qPCR) in NHEK: TP63). Settings: 24 hours, 0.1 mM (Vitamin B12 0.03 mM), normalized to HPRT1, n.s. = not statistically significant.
Protocol: Cell Culture, Cytotoxicity Screening: NHEK [purchased from Lifeline Cell Technologies] were cultured and maintained at 37°C with 5% CO2 using DermaLife K medium according to the manufacturer's recommendations. Two days prior to treatment, NHEK were seeded at a density of -20,000 cells per cm^2 in 24-well plates. Cultures were approximately 75% confluent at the time of treatment.
Stock solutions and final working concentrations of each Test Material were prepared: The following treatment groups were included in the study (N=4): • 1. Vitamin B2, 0.1 mM • 2. D-panthenol, 0.1 mM • 3. Pyridoxine HCl, 0.1 mM • 4. Vitamin B12, 0.03mM • 5. Niacinamide, 0.1 mM • 6. Folic Acid, 0.1 mM
All Test Materials were diluted in DermaLife K medium. NHEK cultured in DermaLife K medium without added supplements served as the Control group.
Treatment and Maintenance of Cultures: Maintenance medium (DermaLife K) was removed from each culture well and replaced with 500 µL (for 24-well cytotoxicity screening) or 2.0 mL (for 6-well gene expression screening) prewarmed Test Medium. Following application of Test Media, the cultures were returned to the incubator at 37°C with 5 % CO2 for 24 hours.
Treatment and Collection of Cell Culture for Gene Expression: Cultures were seeded at a concentration of 20,000 cells/cm^2 in a 6-well plate and incubated for three days at 37°C with 5 % CO2. Fresh media replacements were performed every other day. On the day of treatment, maintenance medium was replaced with test medium. Following a 24 hour exposure, test medium was removed and cell lysis was performed through the addition of 700uL Qiazol lysis buffer (Qiagen) to each well. Cell lysates were immediately collected and stored at -80°C.
RNA Isolation: Total RNA was isolated from frozen cell lysates using a Qiagen miRNeasy Mini kit following the manufacturer's instructions for cultured cells. Total RNA concentration and purity were determined using a Nanodrop 2000 spectrophotometer.
OpenArray format. OpenArrays were run in a Life Technologies QuantStudio 12K Flex instrument. Each gene was assayed in duplicate.
Data Analysis: qPCR data was imported into RealTime StatMiner software v4.2 for statistical analysis using the relative quantitation (RQ) method. […] Unpaired t-tests were carried out using StatMiner software. Statistically significant changes in gene expression (p<0.05) are reported. Linear fold-change data for each subject was calculated using Microsoft Excel.For RQ values >1.0: Linear fold-change value = RQ value For RQ values < 1.0:Linear ford−change value = −1/RQ value [formula]
Statistical Data Analysis Using Statminer Software: qPCR data is typically expressed in log scale and then converted to a linear fold change value. A log10RQ value of 1.0 is equivalent to a 10-fold change in gene expression. A log10RQ value of 0.3 is equivalent to a 2-fold change in gene expression. The log10RQ values have been converted to linear fold change values to simplify data interpretation.

Point of comparison: `Cc1cc2nc3c(=O)[nH]c(=O)nc-3n(C[C@H](O)[C@H](O)[C@H](O)CO)c2cc1C` [Vitamin B2, riboflavin], “Linear Fold-Change Value, Each Group vs the Untreated Control: TP63” value 1.34 fold. Against it:
- CC(C)(CO)[C@@H](O)C(=O)NCCCO [D-Panthenol, (+)-(R)-2,4-Dihydroxy-N-(3-hydroxypropyl)-3,3-dimethylbutyramid] — higher, 1.54 fold
- Nc1nc2ncc(CNc3ccc(C(=O)N[C@@H](CCC(=O)O)C(=O)O)cc3)nc2c(=O)[nH]1 [Folic acid] — higher, 1.43 fold
- Cc1ncc(CO)c(CO)c1O.Cl [Pyridoxine HCl] — higher, 1.55 fold

Same assay, conditions: Homo sapiens, 24 h, read-out: Linear Fold-Change Value, Each Group vs the Untreated Control: TP63

Molecule `NC(=O)c1cccnc1` [Niacinamide, nicotinamide] has a fold induction at 100 µM of 1.21.

Each molecule was assayed on hsa-miR-720 (assay: microRNA expression (qPCR) in NHEK: hsa-miR-720). Settings: 24 hours, 0.1 mM (Vitamin B12 0.03 mM), vs Control group, normalized to RNU44, N=4, negative = decrease.
Protocol: (§6) The study was conducted to understand how different vitamin B supplements influence microRNA and mRNA gene expression in keratinocytes. MicroRNAs are small, non-coding RNA molecules that function as negative regulators of gene expression. […] The current study was performed using normal human epidermal keratinocytes [NHEK].
as §2
(§7) An initial cytotoxicity screening was performed to evaluate a range of Test Material concentrations prior to the microRNA analysis. […] Pyridoxine HCl, 0.1 mM • 4. Vitamin B12, 0.03mM • 5. Niacinamide, 0.1 mM • 6.
(§8) Unpaired t-tests (p<0.05, N=4) were performed to compare each Test Material group to the Control group. […] An endogenous control microRNAs (RNU44) was used for normalization.
as §1, §3
(§9) The preamplification reaction was run for 12 cycles.
(§10) qPCR Processing: qPCR reactions were run using validated Taqman® MicroRNA assays in a Custom OpenArray format. […] Each microRNA was assayed in duplicate.
(§11) Unpaired t-tests were carried out using StatMiner software.

Point of comparison: `Cc1ncc(CO)c(CO)c1O.Cl` [Pyridoxine HCl], “Changes in microRNA Expression of hsa-miR-720 (linear fold-change)” value -1.84 fold. Against it:
- CC(C)(CO)[C@@H](O)C(=O)NCCCO [D-Panthenol, (+)-(R)-2,4-Dihydroxy-N-(3-hydroxypropyl)-3,3-dimethylbutyramid] — lower, -2.21 fold
- cobalamin [Vitamin B12] — lower, -2.10 fold
- Nc1nc2ncc(CNc3ccc(C(=O)N[C@@H](CCC(=O)O)C(=O)O)cc3)nc2c(=O)[nH]1 [Folic acid] — higher, -1.64 fold
- Cc1cc2nc3c(=O)[nH]c(=O)nc-3n(C[C@H](O)[C@H](O)[C@H](O)CO)c2cc1C [Vitamin B2, riboflavin] — lower, -1.93 fold

Each molecule was assayed on hsa-miR-203 (assay: microRNA expression (qPCR) in NHEK: hsa-miR-203). Settings: 24 hours, 0.1 mM (Vitamin B12 0.03 mM), vs Control group, normalized to RNU44, N=4, negative = decrease.
Protocol: as §6, §2, §7, §8, §1, §3, §9, §10, §11

Point of comparison: cobalamin [Vitamin B12], “Changes in microRNA Expression of hsa-miR-203 (linear fold-change)” value -1.46 fold. Against it:
- CC(C)(CO)[C@@H](O)C(=O)NCCCO [D-Panthenol, (+)-(R)-2,4-Dihydroxy-N-(3-hydroxypropyl)-3,3-dimethylbutyramid] — lower, -1.76 fold
- Nc1nc2ncc(CNc3ccc(C(=O)N[C@@H](CCC(=O)O)C(=O)O)cc3)nc2c(=O)[nH]1 [Folic acid] — the same, -1.46 fold
- Cc1ncc(CO)c(CO)c1O.Cl [Pyridoxine HCl] — lower, -1.78 fold
- Cc1cc2nc3c(=O)[nH]c(=O)nc-3n(C[C@H](O)[C@H](O)[C@H](O)CO)c2cc1C [Vitamin B2, riboflavin] — lower, -1.96 fold

Same assay, conditions: Homo sapiens, 24 h, read-out: Changes in microRNA Expression of hsa-miR-203 (linear fold-change)

Work on `NC(=O)c1cccnc1` [Niacinamide, nicotinamide] yielded a fold induction at 100 µM of 1.03.

Each molecule was assayed on KLK7 (assay: Gene expression (qPCR) in NHEK: KLK7). Settings: 24 hours, 0.1 mM (Vitamin B12 0.03 mM), normalized to HPRT1, n.s. = not statistically significant.
Format: cell-based, human
Protocol: as §1, §2, §3, §4, §5

Point of comparison: `Nc1nc2ncc(CNc3ccc(C(=O)N[C@@H](CCC(=O)O)C(=O)O)cc3)nc2c(=O)[nH]1` [Folic acid], “Linear Fold-Change Value, Each Group vs the Untreated Control: KLK7” value (shortened to “Linear Fold-Change Value, Each Group … KLK7”) -1.41 fold. Against it:
- CC(C)(CO)[C@@H](O)C(=O)NCCCO [D-Panthenol, (+)-(R)-2,4-Dihydroxy-N-(3-hydroxypropyl)-3,3-dimethylbutyramid] — lower, -1.60 fold
- Cc1ncc(CO)c(CO)c1O.Cl [Pyridoxine HCl] — lower, -1.44 fold
- Cc1cc2nc3c(=O)[nH]c(=O)nc-3n(C[C@H](O)[C@H](O)[C@H](O)CO)c2cc1C [Vitamin B2, riboflavin] — lower, -2.03 fold

With cobalamin [Vitamin B12] the “Linear Fold-Change Value, Each Group … KLK7” value was “n.s”.
For `NC(=O)c1cccnc1` [Niacinamide, nicotinamide], the “Linear Fold-Change Value, Each Group … KLK7” value was “n.s”.

Each molecule was assayed on KRT10 (assay: Gene expression (qPCR) in NHEK: KRT10). Settings: 24 hours, 0.1 mM (Vitamin B12 0.03 mM), normalized to HPRT1, n.s. = not statistically significant.
Format: cell-based, human
Protocol: as §1, §2, §3, §4, §5

Point of comparison: `Cc1cc2nc3c(=O)[nH]c(=O)nc-3n(C[C@H](O)[C@H](O)[C@H](O)CO)c2cc1C` [Vitamin B2, riboflavin], “Linear Fold-Change Value, Each Group vs the Untreated Control: KRT10” value (“Linear Fold-Change Value, Each Group … KRT10” for short) -2.50 fold. Against it:
- CC(C)(CO)[C@@H](O)C(=O)NCCCO [D-Panthenol, (+)-(R)-2,4-Dihydroxy-N-(3-hydroxypropyl)-3,3-dimethylbutyramid] — higher, -2.26 fold
- Nc1nc2ncc(CNc3ccc(C(=O)N[C@@H](CCC(=O)O)C(=O)O)cc3)nc2c(=O)[nH]1 [Folic acid] — higher, -1.73 fold
- Cc1ncc(CO)c(CO)c1O.Cl [Pyridoxine HCl] — higher, -2.45 fold

For cobalamin [Vitamin B12], the “Linear Fold-Change Value, Each Group … KRT10” value was “n.s”.
`NC(=O)c1cccnc1` [Niacinamide, nicotinamide] was tested, and the “Linear Fold-Change Value, Each Group … KRT10” value was “n.s”.

What follows are molecules tested on LCE3D (assay: Gene expression (qPCR) in NHEK: LCE3D). Settings: 24 hours, 0.1 mM (Vitamin B12 0.03 mM), normalized to HPRT1, n.s. = not statistically significant.
Format: cell-based, human
Protocol: as §1, §2, §3, §4, §5

Point of comparison: `CC(C)(CO)[C@@H](O)C(=O)NCCCO` [D-Panthenol, (+)-(R)-2,4-Dihydroxy-N-(3-hydroxypropyl)-3,3-dimethylbutyramid], “Linear Fold-Change Value, Each Group vs the Untreated Control: LCE3D” value -1.99 fold. Against it:
- cobalamin [Vitamin B12] — higher, -1.65 fold
- Nc1nc2ncc(CNc3ccc(C(=O)N[C@@H](CCC(=O)O)C(=O)O)cc3)nc2c(=O)[nH]1 [Folic acid] — higher, -1.72 fold
- Cc1cc2nc3c(=O)[nH]c(=O)nc-3n(C[C@H](O)[C@H](O)[C@H](O)CO)c2cc1C [Vitamin B2, riboflavin] — higher, 1.60 fold

`Cc1ncc(CO)c(CO)c1O.Cl` [Pyridoxine HCl] was tested, and the “Linear Fold-Change Value, Each Group vs the Untreated Control: LCE3D” value was “n.s”.

What follows are molecules tested on KRT1 (assay: Gene expression (qPCR) in NHEK: KRT1). Settings: 24 hours, 0.1 mM (Vitamin B12 0.03 mM), normalized to HPRT1, n.s. = not statistically significant.
Format: cell-based, human
Protocol: as §1, §2, §3, §4, §5

Point of comparison: `Cc1cc2nc3c(=O)[nH]c(=O)nc-3n(C[C@H](O)[C@H](O)[C@H](O)CO)c2cc1C` [Vitamin B2, riboflavin], “Linear Fold-Change Value, Each Group vs the Untreated Control: KRT1” value -4.00 fold. Against it:
- CC(C)(CO)[C@@H](O)C(=O)NCCCO [D-Panthenol, (+)-(R)-2,4-Dihydroxy-N-(3-hydroxypropyl)-3,3-dimethylbutyramid] — lower, -4.68 fold
- cobalamin [Vitamin B12] — higher, -2.42 fold
- Nc1nc2ncc(CNc3ccc(C(=O)N[C@@H](CCC(=O)O)C(=O)O)cc3)nc2c(=O)[nH]1 [Folic acid] — higher, -3.27 fold
- Cc1ncc(CO)c(CO)c1O.Cl [Pyridoxine HCl] — lower, -4.56 fold
